Measurements as given in the supplement of paper PMC10307832.

How the values were obtained:
Assay in all cases: relative viability (nuclei count vs DMSO), 5 days (fraction); higher = more cells survive
17-AAG + Trametinib = compound: C=CCNC1=C2C[C@@H](C)C[C@H](OC)[C@H](O)[C@@H](C)/C=C(\C)[C@H](OC(N)=O)[C@@H](OC)/C=C\C=C(/C)C(=O)NC(=CC1=O)C2=O [17-AAG] + CC(=O)Nc1cccc(-n2c(=O)n(C3CC3)c(=O)c3c(Nc4ccc(I)cc4F)n(C)c(=O)c(C)c32)c1 [Trametinib] (partner 0.02 µM)
In short: (§1)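 Relative viability was taken as the ratio of nuclei in treated wells to nuclei in vehicle wells. Lung cancer cell lines in 1536-well plates received compounds by pin tool one day after seeding, either one drug alone or a fixed anchor-drug dose plus five library-drug doses (not always all listed) in √10 steps. Nuclei were counted on 4× images after 5 days of treatment, and values are medians of duplicate plates.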

17-AAG + Bortezomib = compound: C=CCNC1=C2C[C@@H](C)C[C@H](OC)[C@H](O)[C@@H](C)/C=C(\C)[C@H](OC(N)=O)[C@@H](OC)/C=C\C=C(/C)C(=O)NC(=CC1=O)C2=O [17-AAG] + CC(C)C[C@H](NC(=O)[C@H](Cc1ccccc1)NC(=O)c1cnccn1)B(O)O [Bortezomib] (partner 0.002 µM)
In short: as §1

17-AAG + Pictilisib = compound: C=CCNC1=C2C[C@@H](C)C[C@H](OC)[C@H](O)[C@@H](C)/C=C(\C)[C@H](OC(N)=O)[C@@H](OC)/C=C\C=C(/C)C(=O)NC(=CC1=O)C2=O [17-AAG] + CS(=O)(=O)N1CCN(Cc2cc3nc(-c4cccc5[nH]ncc45)nc(N4CCOCC4)c3s2)CC1 [Pictilisib] (partner 1 µM)
In short: as §1

17-AAG + Olaparib = compound: C=CCNC1=C2C[C@@H](C)C[C@H](OC)[C@H](O)[C@@H](C)/C=C(\C)[C@H](OC(N)=O)[C@@H](OC)/C=C\C=C(/C)C(=O)NC(=CC1=O)C2=O [17-AAG] + O=C(c1cc(Cc2n[nH]c(=O)c3ccccc23)ccc1F)N1CCN(C(=O)C2CC2)CC1 [Olaparib] (partner 8 µM)
In short: as §1

| Cell Line | relative viability (17-AAG + Trametinib; first compound 0.00128 µM) | relative viability (17-AAG + Trametinib; first compound 0.004048 µM) | relative viability (17-AAG + Trametinib; first compound 0.0128 µM) | relative viability (17-AAG + Trametinib; first compound 0.04048 µM) | relative viability (17-AAG + Trametinib; first compound 0.128 µM) | relative viability (17-AAG + Bortezomib; first compound 0.00128 µM) | relative viability (17-AAG + Bortezomib; first compound 0.004048 µM) | relative viability (17-AAG + Bortezomib; first compound 0.0128 µM) | relative viability (17-AAG + Bortezomib; first compound 0.04048 µM) | relative viability (17-AAG + Bortezomib; first compound 0.128 µM) | relative viability (17-AAG + Pictilisib; first compound 0.00128 µM) | relative viability (17-AAG + Pictilisib; first compound 0.004048 µM) | relative viability (17-AAG + Pictilisib; first compound 0.0128 µM) | relative viability (17-AAG + Pictilisib; first compound 0.04048 µM) | relative viability (17-AAG + Pictilisib; first compound 0.128 µM) | relative viability (17-AAG + Olaparib; first compound 0.00128 µM) | relative viability (17-AAG + Olaparib; first compound 0.004048 µM) | relative viability (17-AAG + Olaparib; first compound 0.0128 µM) | relative viability (17-AAG + Olaparib; first compound 0.04048 µM) | relative viability (17-AAG + Olaparib; first compound 0.128 µM) |
| --- | --- | --- | --- | --- | --- | --- | --- | --- | --- | --- | --- | --- | --- | --- | --- | --- | --- | --- | --- | --- |
| 201T | 0.778 | 0.729 | 0.688 | 0.702 | 0.682 | 1.14 | 1.12 | 1.03 | 1.05 | 0.649 | 0.679 | 0.667 | 0.663 | 0.546 | 0.424 | 0.843 | 0.857 | 0.849 | 0.802 | 0.748 |
| A549 |  |  |  |  |  |  |  |  |  |  | 0.543 | 0.114 | 0.0532 | 0.0751 | 0.0642 | 0.336 | 0.338 | 0.0515 | 0.0272 | 0.0363 |
| A-427 | 0.799 | 0.759 | 0.946 | 0.419 | 0.282 | 1.01 | 1.05 | 0.965 | 0.921 | 0.625 | 0.684 | 0.737 | 0.765 | 0.748 | 0.286 | 0.814 | 0.686 | 0.806 | 0.606 | 0.241 |
| ABC-1 |  |  |  |  |  | 0.356 | 0.348 | 0.355 | 0.287 | 0.246 | 0.794 | 0.777 | 0.829 | 0.81 | 0.651 | 0.677 | 0.847 | 0.737 | 0.954 | 0.486 |
| BEN | 1.07 | 1.16 | 1.31 | 1.07 | 0.613 | 0.917 | 1.14 | 0.997 | 0.64 | 0.232 | 0.569 | 0.72 | 0.656 | 0.346 | 0.183 | 1.06 | 1.03 | 1.01 | 0.666 | 0.358 |
| CAL-12T | 0.394 | 0.352 | 0.319 | 0.308 | 0.146 | 1.11 | 0.899 | 0.904 | 0.726 | 0.469 | 0.541 | 0.601 | 0.417 | 0.377 | 0.193 | 0.754 | 0.697 | 0.725 | 0.371 | 0.211 |
| COR-L23 | 0.664 | 0.504 | 0.438 | 0.158 | 0.0809 | 1.12 | 0.948 | 0.946 | 0.408 | 0.0841 | 0.703 | 0.77 | 0.789 | 0.38 | 0.083 | 0.377 | 0.322 | 0.324 | 0.169 | 0.112 |
| COR-L 105 | 0.473 | 0.406 | 0.501 | 0.375 | 0.335 | 0.548 | 0.729 | 0.746 | 0.581 | 0.507 | 0.394 | 0.434 | 0.435 | 0.324 | 0.298 | 0.601 | 0.71 | 0.778 | 0.55 | 0.515 |
| Calu-6 |  |  |  |  |  | 1.06 | 0.92 | 0.896 | 0.317 | 0.183 | 0.913 | 0.867 | 0.762 | 0.199 | 0.133 | 0.564 | 0.571 | 0.557 | 0.184 | 0.124 |
| ChaGo-K-1 | 0.918 | 0.873 | 0.767 | 0.857 | 0.735 | 1.01 | 0.971 | 0.981 | 0.304 | 0.297 | 0.759 | 0.801 | 0.7 | 0.477 | 0.26 | 0.439 | 0.453 | 0.388 | 0.366 | 0.257 |
| EBC-1 |  |  |  |  |  | 0.536 | 0.252 | 0.185 | 0.203 | 0.165 | 0.477 | 0.157 | 0.13 | 0.185 | 0.143 | 0.676 | 0.407 | 0.13 | 0.142 | 0.126 |
| EKVX | 0.341 | 0.306 | 0.289 | 0.127 | 0.117 | 1.06 | 0.971 | 0.994 | 0.421 | 0.149 | 0.43 | 0.472 | 0.528 | 0.142 | 0.101 | 0.826 | 0.762 | 0.775 | 0.175 | 0.126 |
| EMC-BAC-2 | 0.946 | 0.821 | 0.765 | 0.335 | 0.235 | 1.15 | 1.11 | 1.13 | 1.01 | 0.209 | 0.605 | 0.598 | 0.586 | 0.274 | 0.202 | 0.533 | 0.516 | 0.316 | 0.334 | 0.273 |
| EPLC-272H | 0.278 | 0.268 | 0.229 | 0.169 | 0.135 | 0.89 | 0.821 | 0.97 | 0.855 | 0.171 | 0.291 | 0.32 | 0.291 | 0.169 | 0.168 | 0.721 | 0.662 | 0.195 | 0.0777 | 0.0732 |
| H3255 | 0.597 | 0.556 | 0.544 | 0.31 | 0.21 | 0.864 | 0.722 | 0.46 | 0.237 | 0.205 | 0.424 | 0.453 | 0.463 | 0.203 | 0.154 | 0.556 | 0.494 | 0.484 | 0.284 | 0.231 |
